# Measurements published in PMC3004370, “PI3Kα Inhibitors That Inhibit Metastasis” (Oncotarget, 2010).
# Experiments:
# p110δ = target: T1, p110δ (Homo sapiens, UniProt O00329); assay: Biochemical PI3K inhibition assay, p110δ; settings: 10 μM ATP, two hours
# T1 construct: His-tag; made in house; host or cells: Sf9 insect cells (baculovirus)
# From the text: (§1) cDNA clones of PIK3CA, PIK3CB and PIK3CG were obtained from Origene (Rockville, MD, USA). PIK3CD was generously provided by Novartis Pharmaceuticals. The cDNA clones were sub-cloned into pFastBac His-Tag (Invitrogen, Carlsbad, CA, USA) and baculovirus clones were generated by the Bac-to-Bac expression system (Invitrogen). p110α, p110β and p110δ were co-expressed in Sf9 insect cells (Invitrogen) with a nSH2-iSH2 fragment of the regulatory subunit p85 comprising AA residues 322 to 600 [4]. p110γ was expressed without a regulatory subunit. Sf9 cells were lysed in a buffer containing 50 mM sodium phosphate, pH 8.0, 400 mM NaCl, 5% glycerol, 1% Triton X-100, 10 mM 2-mercaptoethanol, 1 mM orthovanadate, 10 mM imidazole, and sonicated on ice for 1 minute. Proteins were purified by adding Ni-NTA Superflow beads (Qiagen, Valencia, CA, USA) to the lysate and subsequent rolling for 30 min at 4°C. Beads were washed twice with 50 mM phosphate buffer, pH 8.0, 0.5 M NaCl, 50 mM Imidazole, 2 mM DTT and eluted in the same buffer but with 200 mM imidazole. Purified PI3K's were mixed 1:1 with glycerol and stored at -20°C.
# (§2) J-series inhibitors were dissolved, serial diluted in DMSO and deposited into 96 well plates at a final DMSO concentration of 1%. We used a novel assay to determine their potency and selectivity. In brief, micelles of 2.5 μg L-a-Phosphatidylinositol and 2.5 μg 1,2-Diacyl-sn-glycero-3-phospho-L-serine were formed by sonication, mixed with the individual PI3K isoforms and added to the drug dilutions in a reaction buffer containing 10 mM HEPES, 25 mM NaCl, 0.125 μg/μl BSA, and 2 mM BME (final concentrations). Reactions were timed after the addition of 10 μM ATP with 40 μCi/ml γ-32P-ATP (PerkinElmer, Waltham, MA, USA) and 2 mM MgCl2 (all final concentrations). The reactions were terminated after two hours by the addition of 2 N HCl and the lipids extracted with 1:1 MetOH/Chloroform. Radio-labeled phosphatidyl-inositol-3-phosphate in the extracted organic fraction was quantified after the addition of Microscint O (PerkinElmer) using a TopCount 96 well plate scintillation counter (PerkinElmer). IC50 concentrations and inhibition curves were calculated using Prism 5 (GraphPad Software, La Jolla, CA).
# [1] = test system: subcutaneous HCT116 xenograft tumors; assay: Xenograft tumor model; assay type: in vivo; settings: nude mice, 150 mg/kg IP daily for three weeks
# Procedure: (§3) Tumor xenografts were established by injecting 5x10^6 HCT116 cells subcutaneously into the right flanks of female nude mice. Tumor volume was measured twice weekly using electronic calipers and calculated as length x width^2 x 0.5. After tumors reached an average volume of 50 mm^3, animals were treated daily with drugs at 150 mg/kg via IP injection for three weeks. Tumor phospho-Akt levels were determined following harvest on the last day of the study. Xenografts were excised, snap frozen in liquid nitrogen and pulverized with a pestle. Homogenized tissue was re-suspended in lysis buffer (Cell Signaling Technology) and protein contents normalized by Bradford assay (Bio-Rad Laboratories, Hercules, CA, USA). Western blots were performed as described above.
# p110α = target: T2, p110α (Homo sapiens, UniProt P42336); assay: Biochemical PI3K inhibition assay, p110α; settings: for IC50: 10 μM ATP, two hours
# T2 construct: His-tag; made in house; host or cells: Sf9 insect cells (baculovirus)
# T2 sequence (P42336 whole entry): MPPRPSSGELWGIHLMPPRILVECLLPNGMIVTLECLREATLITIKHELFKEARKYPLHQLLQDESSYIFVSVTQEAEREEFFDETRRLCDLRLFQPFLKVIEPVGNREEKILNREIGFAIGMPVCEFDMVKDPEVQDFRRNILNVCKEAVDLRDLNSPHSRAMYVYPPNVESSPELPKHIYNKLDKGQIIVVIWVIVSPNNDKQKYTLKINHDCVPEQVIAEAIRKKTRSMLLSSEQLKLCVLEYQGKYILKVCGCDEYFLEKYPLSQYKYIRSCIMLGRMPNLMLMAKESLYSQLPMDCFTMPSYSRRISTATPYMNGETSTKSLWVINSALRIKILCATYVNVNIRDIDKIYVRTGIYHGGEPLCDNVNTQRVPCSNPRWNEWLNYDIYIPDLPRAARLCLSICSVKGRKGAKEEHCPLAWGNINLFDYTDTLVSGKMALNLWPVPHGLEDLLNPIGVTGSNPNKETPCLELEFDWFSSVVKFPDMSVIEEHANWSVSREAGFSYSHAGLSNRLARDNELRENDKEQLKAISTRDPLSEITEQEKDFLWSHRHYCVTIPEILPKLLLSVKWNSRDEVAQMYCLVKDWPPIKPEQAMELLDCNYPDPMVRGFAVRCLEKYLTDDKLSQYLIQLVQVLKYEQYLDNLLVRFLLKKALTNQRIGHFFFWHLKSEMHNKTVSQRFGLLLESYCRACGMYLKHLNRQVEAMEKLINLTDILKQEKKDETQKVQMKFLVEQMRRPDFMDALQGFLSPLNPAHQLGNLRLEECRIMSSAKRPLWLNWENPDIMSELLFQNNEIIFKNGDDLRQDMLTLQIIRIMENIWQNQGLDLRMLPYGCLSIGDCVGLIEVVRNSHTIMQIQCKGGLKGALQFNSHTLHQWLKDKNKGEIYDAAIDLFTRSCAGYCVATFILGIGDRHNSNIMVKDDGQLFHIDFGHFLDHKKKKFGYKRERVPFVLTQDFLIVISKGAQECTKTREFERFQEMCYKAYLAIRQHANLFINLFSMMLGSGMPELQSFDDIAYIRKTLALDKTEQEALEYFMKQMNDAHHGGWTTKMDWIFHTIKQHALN
# T2 sequence (P27986 322-600 partner limits assumed): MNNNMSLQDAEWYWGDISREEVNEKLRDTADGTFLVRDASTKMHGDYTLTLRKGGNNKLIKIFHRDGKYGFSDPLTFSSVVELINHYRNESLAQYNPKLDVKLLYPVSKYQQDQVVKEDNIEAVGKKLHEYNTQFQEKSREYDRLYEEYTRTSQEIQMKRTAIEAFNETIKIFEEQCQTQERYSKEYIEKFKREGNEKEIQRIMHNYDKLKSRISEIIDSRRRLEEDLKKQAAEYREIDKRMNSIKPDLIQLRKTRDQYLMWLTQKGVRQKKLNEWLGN
# Procedure: PIK3CD was generously provided by Novartis Pharmaceuticals. […] Sf9 cells were lysed in a buffer containing 50 mM sodium phosphate, pH 8.0, 400 mM NaCl, 5% glycerol, 1% Triton X-100, 10 mM 2-mercaptoethanol, 1 mM orthovanadate, 10 mM imidazole, and sonicated on ice for 1 minute. Proteins were purified by adding Ni-NTA Superflow beads (Qiagen, Valencia, CA, USA) to the lysate and subsequent rolling for 30 min at 4°C. Beads were washed twice with 50 mM phosphate buffer, pH 8.0, 0.5 M NaCl, 50 mM Imidazole, 2 mM DTT and eluted in the same buffer but with 200 mM imidazole. Purified PI3K's were mixed 1:1 with glycerol and stored at -20°C.
# as §2, with “In brief, micelles of 2.5 μg L-a-Phosphatidylinositol and 2.5 μg 1,2-Diacyl-sn-glycero-3-phospho-L-serine were formed by sonication, mixed with the individual PI3K isoforms and added to the drug dilutions in a reaction buffer containing 10 mM HEPES, 25 mM NaCl, 0.125 μg/μl BSA, and 2 mM BME (final concentrations).” left out
# p110β = target: T3, p110β (Homo sapiens, UniProt P42338); assay: Biochemical PI3K inhibition assay, p110β; settings: 10 μM ATP, two hours
# T3 construct: His-tag; made in house; host or cells: Sf9 insect cells (baculovirus)
# T3 sequence (P42338 whole entry): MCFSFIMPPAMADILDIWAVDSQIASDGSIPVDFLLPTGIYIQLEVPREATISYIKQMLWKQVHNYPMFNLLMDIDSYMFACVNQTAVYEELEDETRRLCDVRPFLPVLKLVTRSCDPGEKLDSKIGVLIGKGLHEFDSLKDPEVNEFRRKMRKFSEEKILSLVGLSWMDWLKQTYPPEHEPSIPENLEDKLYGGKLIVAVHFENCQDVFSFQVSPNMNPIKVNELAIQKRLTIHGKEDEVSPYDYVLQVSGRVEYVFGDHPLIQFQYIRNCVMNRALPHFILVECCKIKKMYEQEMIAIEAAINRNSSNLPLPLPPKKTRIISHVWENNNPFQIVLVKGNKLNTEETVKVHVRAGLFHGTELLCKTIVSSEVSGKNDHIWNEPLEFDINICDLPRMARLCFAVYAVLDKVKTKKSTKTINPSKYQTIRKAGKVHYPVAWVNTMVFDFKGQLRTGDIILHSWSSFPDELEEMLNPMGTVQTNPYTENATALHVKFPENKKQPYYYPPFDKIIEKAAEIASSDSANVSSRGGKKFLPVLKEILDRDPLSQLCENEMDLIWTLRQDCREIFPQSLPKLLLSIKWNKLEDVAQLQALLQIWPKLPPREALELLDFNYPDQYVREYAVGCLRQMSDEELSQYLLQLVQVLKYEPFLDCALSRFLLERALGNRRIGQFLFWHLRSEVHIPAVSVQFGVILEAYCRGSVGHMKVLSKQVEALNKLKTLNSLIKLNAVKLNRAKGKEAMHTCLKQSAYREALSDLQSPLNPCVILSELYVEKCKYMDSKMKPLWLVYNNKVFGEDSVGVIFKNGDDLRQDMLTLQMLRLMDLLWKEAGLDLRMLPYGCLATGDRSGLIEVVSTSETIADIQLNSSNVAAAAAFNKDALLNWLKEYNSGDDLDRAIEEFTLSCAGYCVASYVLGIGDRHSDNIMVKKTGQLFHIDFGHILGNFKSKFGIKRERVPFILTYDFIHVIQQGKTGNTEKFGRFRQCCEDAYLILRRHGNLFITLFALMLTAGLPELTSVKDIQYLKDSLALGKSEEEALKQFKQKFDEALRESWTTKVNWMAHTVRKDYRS
# T3 sequence (P27986 322-600 partner limits assumed): as the sequence (P27986 322-600 partner limits assumed) above
# From the text: as §1, §2
# p110γ = target: T4, p110γ (Homo sapiens, UniProt P48736); assay: Biochemical PI3K inhibition assay, p110γ; settings: 10 μM ATP, two hours; no regulatory subunit
# T4 construct: His-tag; made in house; host or cells: Sf9 insect cells (baculovirus)
# T4 sequence (P48736 whole entry): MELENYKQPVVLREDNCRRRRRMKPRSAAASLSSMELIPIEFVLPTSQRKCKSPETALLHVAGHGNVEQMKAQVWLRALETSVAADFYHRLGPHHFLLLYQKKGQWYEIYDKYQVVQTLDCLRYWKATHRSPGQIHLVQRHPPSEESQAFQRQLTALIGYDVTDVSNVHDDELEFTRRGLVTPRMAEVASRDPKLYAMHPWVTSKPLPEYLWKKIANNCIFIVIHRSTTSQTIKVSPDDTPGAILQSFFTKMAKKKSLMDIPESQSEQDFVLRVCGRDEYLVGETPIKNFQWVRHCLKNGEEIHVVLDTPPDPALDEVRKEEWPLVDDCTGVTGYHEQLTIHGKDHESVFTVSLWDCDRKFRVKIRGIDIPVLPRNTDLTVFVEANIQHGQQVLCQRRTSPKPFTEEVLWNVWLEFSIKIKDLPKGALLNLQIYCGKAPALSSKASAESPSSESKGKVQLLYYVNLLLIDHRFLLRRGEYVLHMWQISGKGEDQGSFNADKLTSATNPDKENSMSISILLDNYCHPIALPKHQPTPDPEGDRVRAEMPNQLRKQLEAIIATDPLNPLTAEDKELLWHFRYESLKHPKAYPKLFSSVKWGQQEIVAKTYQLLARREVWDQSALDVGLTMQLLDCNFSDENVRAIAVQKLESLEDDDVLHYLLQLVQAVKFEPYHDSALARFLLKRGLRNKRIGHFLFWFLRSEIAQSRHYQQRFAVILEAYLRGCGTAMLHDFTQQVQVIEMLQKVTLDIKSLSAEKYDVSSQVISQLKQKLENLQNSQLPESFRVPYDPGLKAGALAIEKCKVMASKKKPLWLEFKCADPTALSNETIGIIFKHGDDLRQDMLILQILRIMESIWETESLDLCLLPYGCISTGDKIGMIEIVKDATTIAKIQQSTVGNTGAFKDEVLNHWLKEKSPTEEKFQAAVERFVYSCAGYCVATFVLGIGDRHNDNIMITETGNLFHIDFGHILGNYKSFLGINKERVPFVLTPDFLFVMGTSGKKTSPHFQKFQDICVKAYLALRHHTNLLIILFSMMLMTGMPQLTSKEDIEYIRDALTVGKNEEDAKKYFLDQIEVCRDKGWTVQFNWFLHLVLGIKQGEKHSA
# From the text: as §1, §2
# [2] = test system: phosphorylation of Akt1 and Akt2 in HCT116 cells; assay: P-Akt western analysis in cells; assay type: cell-based, human; settings: 6 hours, concentrations that inhibited cell growth
# Procedure: Phopspho-Akt levels were assayed in HCT116 cells. 1x10^6 cells/well were seeded in six-well plates and serum starved for 2 hours in McCoy's 5A medium. Drugs were pre-mixed with complete medium containing 10% FBS and incubated with the cells for 6 hours. Cells were lysed on ice with 100 mM Tris-HCl, pH 7.0, 10% 2-mercaptoethanol, 4% SDS, 20% glycerol, 0.05% Bromophenol blue, 20 μl 1 mM NaF, 1 mM Na3VO4, and Complete Protease Inhibitor Cocktail Tablet (Roche, Nutley, NJ, USA) without EDTA and sonicated for 30 seconds. Phospho-Akt was assayed with Phospho-Akt (Ser473) antibody (#9271, Cell Signaling Technology, Danvers, MA, USA). Subsequently the membrane was stripped and incubated with Akt1 (D-17) antibody (sc-7126, Santa Cruz Biotechnology,Santa Cruz, CA, USA)) for loading control.
# [3] = test system: P-Akt in HCT116 xenografts; assay: Intra-tumor P-Akt levels in xenografts; assay type: in vivo, nude mice; settings: post IP injection
# Procedure: as §3
# [4] = test system: Intraspleenic-injected HCT116 liver and lung metastases; assay: Intraspleenic tumor model (metastasis); assay type: in vivo, mice; settings: 150 mg/kg IP daily, three weeks
# Procedure: Intraspleenic-injected HCT116 liver and lung metastases in NOD.Cg-Prkdcscid Il2rgtm1Wjl/SzJ mice (Jackson Laboratory, Bar Harbor, ME, USA) were generated as described in Erikson et. al.. J-series compounds were solubilized in 1:1 DMSO/Cremophor EL (Sigma-Aldrich) and diluted 2.3-fold in water to a final concentration of 7.5 mg/ml. 400 μl of this formulation (150 mg/kg) was injected intraperitoneally (IP) once a day for three weeks, beginning the third day post-surgery. Mice were sacrificed after the treatment and the liver, lungs, and spleen sampled. DNA was extracted from organs with the DNeasy Blood & Tissue Kit (Qiagen). The qPCR assay used for quantification of human DNA in mouse organs has been described. All mouse protocols were designed in accordance with the NIH Guide for the Care and Use of Laboratory Animals and approved by the Institutional Animal Care and Use Committee.
# T1 sequence (O00329 whole entry): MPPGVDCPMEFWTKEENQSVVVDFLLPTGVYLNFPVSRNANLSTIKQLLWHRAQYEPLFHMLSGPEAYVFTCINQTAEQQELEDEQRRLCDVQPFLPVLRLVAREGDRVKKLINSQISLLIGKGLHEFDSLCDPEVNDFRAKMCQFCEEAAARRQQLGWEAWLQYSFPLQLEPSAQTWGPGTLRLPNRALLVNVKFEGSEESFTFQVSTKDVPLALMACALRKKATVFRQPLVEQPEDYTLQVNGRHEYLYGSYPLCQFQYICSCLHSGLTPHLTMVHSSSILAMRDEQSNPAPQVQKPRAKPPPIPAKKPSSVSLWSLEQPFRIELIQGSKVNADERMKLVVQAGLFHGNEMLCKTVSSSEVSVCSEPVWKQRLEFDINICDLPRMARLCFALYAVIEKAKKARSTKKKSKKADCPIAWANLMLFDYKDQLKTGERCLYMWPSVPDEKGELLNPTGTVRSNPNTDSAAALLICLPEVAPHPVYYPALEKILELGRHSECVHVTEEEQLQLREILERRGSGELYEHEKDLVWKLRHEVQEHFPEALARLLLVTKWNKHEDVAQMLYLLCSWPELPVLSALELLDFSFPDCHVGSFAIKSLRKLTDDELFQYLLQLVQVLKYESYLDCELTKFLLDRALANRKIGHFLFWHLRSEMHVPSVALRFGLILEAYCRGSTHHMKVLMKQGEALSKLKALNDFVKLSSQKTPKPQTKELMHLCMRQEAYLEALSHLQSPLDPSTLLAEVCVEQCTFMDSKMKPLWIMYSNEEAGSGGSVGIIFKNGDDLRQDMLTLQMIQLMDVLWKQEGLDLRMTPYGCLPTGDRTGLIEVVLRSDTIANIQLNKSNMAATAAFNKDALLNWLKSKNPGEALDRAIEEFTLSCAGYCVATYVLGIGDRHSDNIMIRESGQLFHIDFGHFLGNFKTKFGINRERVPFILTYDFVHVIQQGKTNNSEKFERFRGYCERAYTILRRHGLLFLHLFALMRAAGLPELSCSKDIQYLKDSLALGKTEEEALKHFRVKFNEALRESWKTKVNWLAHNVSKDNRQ
# T1 sequence (P27986 322-600 partner limits assumed): as the sequence (P27986 322-600 partner limits assumed) above
SMILES,IC50 (p110δ) [nM],anti-tumor activity against subcutaneous HCT116 xenograft tumors [1],IC50 (p110α) [nM],increase of selectivity against the other three isoforms (p110α; J32 versus J27),effect of substitution on PI3Kα potency/selectivity (in words) (p110α; SAR discussion),IC50 (p110β) [nM],IC50 (p110γ) [nM],phosphorylation of Akt1 and Akt2 (western blot) [2],increase of inhibitory activity for PI3Kα (p110α; compared to J32) [fold],intra-tumor P-Akt levels [3],metastatic lesions in the lungs [4],metastatic foci in the liver (histopathology) ([4]; compared to vehicle),reduction in primary tumor burden in the spleen (real-time PCR) ([4]; compared to vehicle),reduction of metastatic liver burden (real-time PCR) ([4]; compared to vehicle) [fold]
CCN(/N=C/c1cnc2ccc(Br)cn12)S(=O)(=O)c1cc([N+](=O)[O-])ccc1C [J32],1400,Only a minor anti-tumor activity,15,up to 8 fold,potency for PI3Kα was retained,1200,620,,,,,,,
CCN(/N=C/c1cnc2ccc(Br)cn12)S(=O)(=O)c1cc([N+](=O)[O-])c(N)cc1C [J124-I],26,Only a minor anti-tumor activity,2,,,46,73,inhibitory effect,7.5,reduced up to 3 hours,,,,
CCN(/N=C/c1cnc2ccc(Br)cn12)S(=O)(=O)c1cc([N+](=O)[O-])c(N)cc1Cl [J128],110,,4,,,130,250,,,,no lesions,"few, if any, metastatic foci",~ 50%,9
